Data set [1] can be described thus: Solubility of compound in FaSSIF at pH 6.5 measured after 4 hrs by HPLC-UV analysis. The class given is physicochemical.
Data set [2] has as its target Cyclic GMP-AMP synthase (Homo sapiens) (UniProt Q8N884). The data set is described as follows: Inhibition of human recombinant cGAS (157 to 522 residues) extracted from Escherichia coli BL21(DE3)cells using GTP/ATP as substrate incubated for 1 to 2 hrs by Rapidfire 300 mass spectrometric analysis. The conditions noted are these: time 1-2 hrs.
For data set [3] the target is unchanged. The data set is described as follows: Inhibition of cGAS in human whole blood incubated for 6 hrs by cytometric bead array. The class given is tissue-based.

Converted amounts (≈) assume the structure as drawn. Bounds are passed on as bounds.

The solubility is the dissolved amount per volume that the medium holds. A low value points to a poorly soluble substance.

Cyclic GMP-AMP synthase (Homo sapiens), sequence (Q8N884 whole entry, the tested form may be a part): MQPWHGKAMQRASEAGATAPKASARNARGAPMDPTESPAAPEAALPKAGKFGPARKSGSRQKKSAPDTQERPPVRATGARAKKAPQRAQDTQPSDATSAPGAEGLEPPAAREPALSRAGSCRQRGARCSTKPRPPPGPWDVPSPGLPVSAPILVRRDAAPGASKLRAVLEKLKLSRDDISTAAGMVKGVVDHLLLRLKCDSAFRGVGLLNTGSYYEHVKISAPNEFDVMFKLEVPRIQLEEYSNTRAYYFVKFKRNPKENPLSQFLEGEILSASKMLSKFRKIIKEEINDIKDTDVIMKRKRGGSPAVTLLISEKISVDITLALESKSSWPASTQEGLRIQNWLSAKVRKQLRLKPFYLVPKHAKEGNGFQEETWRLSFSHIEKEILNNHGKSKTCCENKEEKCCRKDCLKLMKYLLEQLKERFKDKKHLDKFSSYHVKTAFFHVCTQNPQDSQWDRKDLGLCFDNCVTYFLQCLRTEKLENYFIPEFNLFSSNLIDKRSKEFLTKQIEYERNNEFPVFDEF

On to `FC(F)(F)c1n[nH]c(-c2nc3ncccn3c2-c2c[nH]cn2)n1`, for which the concentration in solution in data set [1] (solubility at 4 h) came to 4 µg/mL (≈ 12.5 µM).

Consider `Fc1cnc2nc(-c3nc(C(F)(F)F)n[nH]3)c(-c3c[nH]cn3)n2c1`, for which the values for the pXC50 in data set [2] and in data set [3] were 8.4 and 6.5, respectively. The concentration in solution in data set [1] (solubility at 4 h) was 5 µg/mL (≈ 14.8 µM).

Take `O=C(CCCOP(=O)(O)O)OCn1cnc(-c2c(-c3nc(C(F)(F)F)nn3COC(=O)CCCOP(=O)(O)O)nc3ncccn23)c1.O=C(O)C(F)(F)F`: the pXC50 in data set [2] is 7.5; in data set [3], 6.5. In data set [1], this compound gave a solubility at 4 h of more than 1000 µg/mL.

`O=P(O)(O)OCn1nc(C(F)(F)F)nc1-c1nc2ncc(F)cn2c1-c1cnc[nH]1`: the pXC50 in data set [2] amounted to 6.1. In data set [1], this compound yielded a solubility at 4 h of more than 1000 µg/mL.

The values above are taken from ChEMBL document CHEMBL6109165, “Novel Triazole-Substituted Imidazo[1,2-a]Pyrimidine Compounds as cGAS inhibitors” (ACS Med Chem Lett, 2025).
